Values joined by “and” are separate entries in the source; they are usually repeats but may differ in a detail not shown here. Equal values may be shown once.
System: bovine IVF-oocytes
Assay: Example 8: Hb (1 μg/ml) in mBECM co-culture, oocytes collected in different months, pre-hatching development
Format: cell-based
Parameters: key to Least square mean ± SE of embryos developed to 8-cell / Least square mean ± SE of embryos developed to 16-cell / Least square mean ± SE of embryos developed to Morula / Least square mean ± SE of embryos developed to Blastocyst / Least square mean ± SE of embryos developed to 2-cell: mean of per-embryo scores: 1 = developed to stage, 0 = not developed
Method: The basic medium used for maturation of oocytes was tissue culture medium (TCM)-199 with Earle's salts, buffered with 25 mM HEPES (Gibco BRL, Grand Island, N.Y.) and supplemented with 10% (v/v) heat-inactivated fetal bovine serum (FBS; Hyclone Laboratories, Logan, Utah), 1 μg/ml estradiol-17β (NOBL Laboratories, Sioux Center, Iowa), 3 μg/ml bovine FSH (NOBL Laboratories), 6 μg/ml bovine LH (NOBL Laboratories), and 25 μg/ml gentamycin (Sigma Chemical Co., St. Louis, Mo.). The basic medium used for treatment of spermatozoa and fertilization of oocytes was a modified Tyrode's medium (J. Parrish et al., Capacitation of bovine sperm by heparin. Biol. Reprod. 38:1171-1180 (1988)), supplemented with 0.25 mM sodium pyruvate (Gibco BRL), 6 mg/ml fatty acid (FA)-free BSA (No. A-6003, Sigma), 15 μg/ml calcium heparin from porcine intestinal mucosa (183 USP/mg; H-8398, Sigma), and 25 μg/ml gentamycin. Modified bovine embryo culture medium (mBECM) containing 10 μM β-mercaptoethanol was used for culture of embryos, as described in J. Lim et al., “Roles of growth factors in the development of bovine embryos fertilized in vitro and cultured singly in a defined medium,” Reprod. Fertil. Dev., 8:1199-1205 (1996). mBECM supplemented with 10% (v/v) FBS was used for co-culturing inseminated oocytes with CGC. Osmolarity of the medium was maintained within the range of 265-290 mOsm.
All cumulus-oocyte complexes (COC) were collected in Madison, Wis. (BOMED, Inc.) and were shipped in 2 ml of maturation medium in a battery powered incubator via overnight express mail service. Oocytes matured during transit and arrived within 24 h after exposure to maturation medium, pre-equilibrated at 39° C. in 5% CO2 in air. At 22 to 24 h after exposure to the medium, the COCs were inseminated in vitro as described in J. Lim et al., “Intracytoplasmic glutathione concentration and the role of β-mercaptoethanol in preimplantation development of bovine embryos,” Theriogenology, 46:429-439 (1996). At 18 h post-insemination, COCs were cultured in groups (28-40 embryos) in a 4-well multidish (Nunc, Roskilde, Denmark) containing 0.8-ml of mBECM. Embryos were dislodged from CGC at 36 to 48 h post-insemination.
In Example 8, bovine follicular oocytes were collected from November 1996 to May 1997, and matured and fertilized in culture. (Oocytes collected during summer and early fall were not used in this study, to avoid interference from environmental heat stress on in vitro survival of embryos.) IVF embryos were collected at 18 h post-insemination and cultured in mBECM supplemented with FBS (10%, v/v), to which 0 or 1 μg/ml Hb (from bovine, mainly methemoglobin, H-2500, Sigma Co.) was added. Development of embryos to the 2-cell, 8-cell, 16-cell, morula, and blastocyst stages was monitored 48, 60, 120, 144 and 192 h post-insemination, respectively. As a supplemental experiment, some blastocysts in each treatment (20 or 28) were randomly collected, and the cell number of the blastocysts was counted by use of Hoechst stain 33342 and a fluorescent microscope (Diaphod, Nikkon, Tokyo, Japan). This experiment used 1675 embryos in 25 replicates, with IVF embryos randomly allotted among treatments.
Embryos developed to the 2-cell, 8-cell, 16-cell, morula, and blastocyst stages at the pertinent observation times were individually scored ‘1’ (developed). Embryos that had not developed to these stages at the same times were scored ‘0’ (non-developed). Sums of the scores at each stage of development were evaluated by analysis of variance using a general linear model (PROC-GLM) in the SAS statistical programming package (1991). In Example 8, the combined effects of Hb addition and month of oocyte collection were first examined in a 2×7 factorial arrangement. Overall differences in embryonic development in Hb-free and Hb-containing culture systems were further evaluated. […] Differences were regarded as statistically significant where P values were less than 0.05.

hemoglobin [Hb]
Least square mean ± SE of embryos developed to 2-cell (April): 0.70 ± 0.03
Least square mean ± SE of embryos developed to 8-cell (April): 0.48 ± 0.03
Least square mean ± SE of embryos developed to 16-cell (April): 0.39 ± 0.03
Least square mean ± SE of embryos developed to Blastocyst (April): 0.25 ± 0.03
Least square mean ± SE of embryos developed to Morula (April): 0.32 ± 0.03
Least square mean ± SE of embryos developed to 2-cell (December): 0.79 ± 0.05
Least square mean ± SE of embryos developed to 8-cell (December): 0.59 ± 0.05
Least square mean ± SE of embryos developed to 16-cell (December): 0.53 ± 0.05
Least square mean ± SE of embryos developed to Blastocyst (December): 0.36 ± 0.05
Least square mean ± SE of embryos developed to Morula (December): 0.41 ± 0.05
Least square mean ± SE of embryos developed to 2-cell (February): 0.77 ± 0.04
Least square mean ± SE of embryos developed to 8-cell (February): 0.53 ± 0.04
Least square mean ± SE of embryos developed to 16-cell (February): 0.44 ± 0.04
Least square mean ± SE of embryos developed to Blastocyst (February): 0.35 ± 0.04
Least square mean ± SE of embryos developed to Morula (February): 0.40 ± 0.04
Least square mean ± SE of embryos developed to 2-cell (January): 0.70 ± 0.04
Least square mean ± SE of embryos developed to 8-cell (January): 0.45 ± 0.04
Least square mean ± SE of embryos developed to 16-cell (January): 0.42 ± 0.04
Least square mean ± SE of embryos developed to Blastocyst (January): 0.28 ± 0.04
Least square mean ± SE of embryos developed to Morula (January): 0.32 ± 0.04
Least square mean ± SE of embryos developed to 2-cell (March): 0.58 ± 0.05
Least square mean ± SE of embryos developed to 8-cell (March): 0.40 ± 0.06
Least square mean ± SE of embryos developed to 16-cell (March): 0.31 ± 0.06
Least square mean ± SE of embryos developed to Blastocyst (March): 0.20 ± 0.05
Least square mean ± SE of embryos developed to Morula (March): 0.23 ± 0.06
Least square mean ± SE of embryos developed to 2-cell (May): 0.70 ± 0.05
Least square mean ± SE of embryos developed to 8-cell (May): 0.60 ± 0.05
Least square mean ± SE of embryos developed to 16-cell (May): 0.49 ± 0.05
Least square mean ± SE of embryos developed to Blastocyst (May): 0.40 ± 0.05
Least square mean ± SE of embryos developed to Morula (May): 0.44 ± 0.05
Least square mean ± SE of embryos developed to 2-cell (November): 0.89 ± 0.07
Least square mean ± SE of embryos developed to 8-cell (November): 0.71 ± 0.08
Least square mean ± SE of embryos developed to 16-cell (November): 0.60 ± 0.08
Least square mean ± SE of embryos developed to Blastocyst (November): 0.34 ± 0.07
Least square mean ± SE of embryos developed to Morula (November): 0.57 ± 0.08
formation of blastocysts (least square mean), range over months (November-May, control 0.17-0.32): 0.20-0.4
formation of morulae (least square mean), range over months (November-May, control 0.2-0.37): 0.23-0.57
Number of embryos developed to 2-cell (all months overall, 831 embryos cultured, 48 h): 601
Number of embryos developed to 8-cell (all months overall, 831 embryos cultured, 60 h): 427
Number of embryos developed to 16-cell (all months overall, 831 embryos cultured, 120 h): 358
Number of embryos developed to Morula (all months overall, 831 embryos cultured, 144 h): 300
Number of embryos developed to Blastocyst (all months overall, 831 embryos cultured, 192 h): 251
Least square mean ± SE of embryos developed to 2-cell (all months overall, 48 h): 0.73 ± 0.02
Least square mean ± SE of embryos developed to 8-cell (all months overall, 60 h): 0.54 and 0.54 ± 0.02
Least square mean ± SE of embryos developed to 16-cell (all months overall, 120 h): 0.45 and 0.45 ± 0.02
Least square mean ± SE of embryos developed to Morula (all months overall, 144 h): 0.39 and 0.39 ± 0.02
Least square mean ± SE of embryos developed to Blastocyst (all months overall, 192 h): 0.31 and 0.31±0.02
effect on development to the 2-cell stage (all months overall, P>0.73): no significant effect
